Reference: the OPERA property sets (Mansouri et al. 2018)

Row | Compound | boiling point | melting point | also measured
1 | C1CC1 | -32.8 °C | -127 °C | log10 vapour pressure (mmHg): 3.73
2 | FC1C(F)(F)C(F)(F)C(F)(F)C(F)(F)C1(F)F | 62 °C | – | –
3 | CC1CCC2CC1C2(C)C (stereo not given) | 160 °C | – | –
4 | CC(C)(OC1CCCCC1)C(=O)O | – | 75 °C | –
5 | C/C=C/C=C/C(=O)O | – | – | ready biodegradability: readily biodegradable
6 | OCc1ccncc1 | – | 53 °C | –
7 | O=C(Cl)CCCCCCCCC(=O)Cl | – | -2.5 °C | –
8 | O=C(O)c1cccc(F)c1F | – | 164 °C | –
9 | C=C(C)C(C)C | 55.6 °C | -157 °C | log10 vapour pressure (mmHg): 2.4
10 | CNc1ccc(O)c2c1C(=O)c1c(O)ccc(NC)c1C2=O | – | 217 °C | –
11 | C=CC/C=C/C | 65 °C | -139 °C | log10 vapour pressure (mmHg): 2.24
12 | CC(CCl)OP(=O)(OC(C)CCl)OC(C)CCl (stereo not given) | – | -40 °C | ready biodegradability: not readily biodegradable; log10 BCF (fish): 0.9; log10 biotransformation half-life (days) (fish): -1.31
13 | Sc1ccccn1 | – | 129 °C | –
14 | CCc1cccc2c3c([nH]c12)C(CC)(CC(=O)O)OCC3 (stereo not given) | – | 146 °C | –
15 | C#CCCCCCC | 126 °C | -79.3 °C | log10 vapour pressure (mmHg): 1.13
16 | COc1cc(C=O)cc(OC)c1 | – | 46.3 °C | –
17 | CCN(CCO)CCn1c(Cc2ccccc2)nc2c1c(=O)n(C)c(=O)n2C | – | 80 °C | –
18 | c1ccc2c(c1)OCO2 | 172 °C | – | –
19 | C[C@H]1C[C@H]2[C@@H]3CCC4=CC(=O)C=C[C@]4(C)[C@@]3(F)[C@@H](O)C[C@]2(C)[C@@]1(O)C(=O)CCl | – | 196 °C | –
20 | CO[Si](C)(C)OC | 82 °C | – | –
21 | CC(=O)CC(=O)c1ccccc1 | 262 °C | 56 °C | ready biodegradability: readily biodegradable
22 | C=CCCC(C)C | 85.3 °C | – | –
23 | Nc1ccc(Cl)cn1 | – | 137 °C | –
24 | Cc1ccc(-c2ccccc2)cc1C | 282 °C | 29.5 °C | –
25 | OC(c1ccccc1)c1ccccc1 | 298 °C | 69 °C | log10 Koc (L/kg): 2.34; log10 vapour pressure (mmHg): -4.56; ready biodegradability: readily biodegradable
26 | O=C(O)CCOc1cccc2ccccc12 | – | 146 °C | –

Row | Compound | boiling point | melting point | also measured
27 | Cc1cc(C)c(Br)cc1C | 234 °C | 73 °C | –
28 | CC(=O)CC(c1ccco1)c1c(O)c2ccccc2oc1=O (stereo not given) | – | 124 °C | –
29 | NNc1c(F)c(F)cc(F)c1F | – | 92 °C | –
30 | CCOP(=S)(OCC)Oc1ccc(SC)cc1 | – | – | log10 Koc (L/kg): 3.18
31 | Cc1ccc(CCl)c(C)c1 | 216 °C | – | –
32 | Cc1ccc(-c2ccccc2)cc1 | 268 °C | 49.5 °C | log10 biodegradation half-life (days): 1.58
33 | CCCOC(=O)CCC(=O)OCCC | 251 °C | -5.9 °C | –
34 | BrCBr | 97 °C | -52.5 °C | log10 Henry constant (atm·m³/mol): -3.09; log10 Koa: 3.07; log10 vapour pressure (mmHg): 1.65
35 | CCCCCCCCCCCCCCCCCCCCCCCCCCCCCC | 450 °C | 65.8 °C | log10 biodegradation half-life (days): 2.24; log10 vapour pressure (mmHg): -10.6; ready biodegradability: readily biodegradable
36 | CN(C)N=O | 154 °C | – | log10 vapour pressure (mmHg): 0.431; ready biodegradability: not readily biodegradable
37 | O=C(OCCOc1ccc(Cl)cc1Cl)c1ccccc1 | – | 66 °C | –
38 | COC(=O)c1ccc(C(=O)OC)o1 | – | 112 °C | –
39 | COC(=O)CCS | 166 °C | – | ready biodegradability: readily biodegradable
40 | Cc1cc(C)c2ccccc2n1 | 265 °C | – | log10 vapour pressure (mmHg): -2.1
41 | COc1c(C[C@@H](O)C(C)C)c(=O)n(C)c2c(OC)cccc12 | – | 86.5 °C | –
42 | OCc1ccccc1Cl | 230 °C | 73 °C | –
43 | Cc1cc2cc3cc(C)c(C)cc3cc2cc1C | – | – | log10 biotransformation half-life (days) (fish): 0.59
44 | CCSC(=O)COc1ccc(Cl)cc1C | – | 41.5 °C | log10 vapour pressure (mmHg): -3.8
45 | SCCCS | 173 °C | -79 °C | –
46 | O=C1CSC2(CCN(CCCN3c4ccccc4Sc4ccc(Cl)cc43)CC2)N1 | – | 155 °C | –
47 | CCOC(=O)C(O)c1ccccc1 (stereo not given) | – | 35 °C | –
48 | CC(C)C(C)N (stereo not given) | 85.5 °C | -50 °C | –
49 | CC(N)CO (stereo not given) | 174 °C | – | –
50 | CCOC(=O)C(Br)(Br)Br | 225 °C | – | –
51 | CC(O)(CCl)CCl | 174 °C | – | –
52 | CCCCCCCCCCCCOC(=O)c1ccc(N)cc1 | – | 82 °C | –
